Experiments:
Russian thistle (SASKR) = test: Postemergence greenhouse trial, % visual injury on Russian thistle; format: in vivo, Salsola kali; settings: for % visual injury, observed (Ob): SASKR; for % visual injury, Ob: alone
kochia (KCHSC) = test: Postemergence greenhouse trial, % visual injury on kochia; format: in vivo, Kochia scoparia; settings: for % visual injury, Ob / % visual injury, observed (Ob): KCHSC
How it was run: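 Herbicide rates g ae/ha, safener (cloquintocet-mexyl) rates g ai/ha; spray carrier 1.5% v/v crop oil concentrate, 187 L/ha, 2nd–3rd leaf stage. Rating: visual % injury at 20-22 d.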

spring wheat (TRZAS) = test: Postemergence greenhouse trial, % visual injury on spring wheat; format: in vivo, Triticum aestivum
How it was run: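 Injury was scored visually (0 = none, 100 = complete kill) 20–22 d after track-sprayer application at 187 L/ha, compared with solvent-sprayed controls. Test plants at the 2–3 true leaf stage; herbicide (g ae/ha) plus cloquintocet-mexyl safener (g ai/ha) in crop-oil-containing spray; expected mixture response by Colby.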

CCCCCC(C)OC(=O)COc1ccc(Cl)c2cccnc12 (centres unmarked) [CQC-m, cloquintocet-mexyl, reference compound]
0%: % visual injury, observed (Ob) (Russian thistle (SASKR); compound 8 0 + CQC-m 8.75 g/ha) | % visual injury, observed (Ob) (Russian thistle (SASKR); compound 8 0 + CQC-m 17.5 g/ha) | % visual injury, observed (Ob) (Russian thistle (SASKR); compound 8 0 + CQC-m 35 g/ha) | % visual injury, observed (Ob) (Russian thistle (SASKR); compound 8 0 + CQC-m 70 g/ha) | % visual injury, Ob (Russian thistle (SASKR); 4.375 g/ha) | % visual injury, Ob (Russian thistle (SASKR); 8.75 g/ha) | % visual injury, Ob (Russian thistle (SASKR); 17.5 g/ha) | % visual injury, Ob (Russian thistle (SASKR); 35 g/ha) | % visual injury, Ob (Russian thistle (SASKR); 70 g/ha) | pest or weed control at 4.375 g/ha (kochia (KCHSC); Bassia scoparia, post-emergence, alone, 4.375 g/ha, read-out: % visual injury, Ob) | pest or weed control at 8.75 g/ha (kochia (KCHSC); Bassia scoparia, post-emergence, alone, 8.75 g/ha, read-out: % visual injury, Ob) | pest or weed control at 17.5 g/ha (kochia (KCHSC); Bassia scoparia, post-emergence, alone, 17.5 g/ha, read-out: % visual injury, Ob) | pest or weed control at 20 g/ha (kochia (KCHSC); Bassia scoparia, post-emergence, alone, 20 g/ha, read-out: % visual injury, Ob) | pest or weed control at 35 g/ha (kochia (KCHSC); Bassia scoparia, post-emergence, alone, 35 g/ha, read-out: % visual injury, Ob) | pest or weed control at 40 g/ha (kochia (KCHSC); Bassia scoparia, post-emergence, alone, 40 g/ha, read-out: % visual injury, Ob) | pest or weed control at 70 g/ha (kochia (KCHSC); Bassia scoparia, post-emergence, alone, 70 g/ha, read-out: % visual injury, Ob) | pest or weed control at 80 g/ha (kochia (KCHSC); Bassia scoparia, post-emergence, alone, 80 g/ha, read-out: % visual injury, Ob) | % visual injury, Ob (kochia (KCHSC); 4.375 g/ha, applied alone) | % visual injury, Ob (kochia (KCHSC); 8.75 g/ha, applied alone) | % visual injury, Ob (kochia (KCHSC); 17.5 g/ha, applied alone) | % visual injury, Ob (kochia (KCHSC); 35 g/ha, applied alone) | % visual injury, Ob (kochia (KCHSC); 70 g/ha, applied alone) | % visual injury, Ob (kochia (KCHSC); compound 0, CQC-m 4.375 g/ha) | % visual injury, Ob (kochia (KCHSC); compound 0, CQC-m 8.75 g/ha) | % visual injury, Ob (kochia (KCHSC); compound 0, CQC-m 17.5 g/ha) | % visual injury, Ob (kochia (KCHSC); compound 0, CQC-m 35 g/ha) | % visual injury, Ob (kochia (KCHSC); compound 0, CQC-m 70 g/ha) | % visual injury, Ob (kochia (KCHSC); compound 0 g/ha, CQC-m 4.375 g/ha) | % visual injury, Ob (kochia (KCHSC); compound 0 g/ha, CQC-m 8.75 g/ha) | % visual injury, Ob (kochia (KCHSC); compound 0 g/ha, CQC-m 17.5 g/ha) | % visual injury, Ob (kochia (KCHSC); compound 0 g/ha, CQC-m 35 g/ha) | % visual injury, Ob (kochia (KCHSC); compound 0 g/ha, CQC-m 70 g/ha) | % visual injury, observed (Ob) (kochia (KCHSC); compound 8 0 + CQC-m 4.375 g/ha) | % visual injury, observed (Ob) (kochia (KCHSC); compound 8 0 + CQC-m 8.75 g/ha) | % visual injury, observed (Ob) (kochia (KCHSC); compound 8 0 + CQC-m 17.5 g/ha) | % visual injury, observed (Ob) (kochia (KCHSC); compound 8 0 + CQC-m 35 g/ha) | % visual injury, observed (Ob) (kochia (KCHSC); compound 8 0 + CQC-m 70 g/ha) | % visual injury, Ob (spring wheat (TRZAS); TRZAS, 4.375 g/ha, applied alone) | % visual injury, Ob (spring wheat (TRZAS); TRZAS, 8.75 g/ha, applied alone) | % visual injury, Ob (spring wheat (TRZAS); TRZAS, 17.5 g/ha, applied alone) | % visual injury, Ob (spring wheat (TRZAS); TRZAS, 35 g/ha, applied alone) | % visual injury, Ob (spring wheat (TRZAS); TRZAS, 70 g/ha, applied alone) | % visual injury, Ob (spring wheat (TRZAS); TRZAS, compound 0, CQC-m 4.375 g/ha) | % visual injury, Ob (spring wheat (TRZAS); TRZAS, compound 0, CQC-m 8.75 g/ha) | % visual injury, Ob (spring wheat (TRZAS); TRZAS, compound 0, CQC-m 17.5 g/ha) | % visual injury, Ob (spring wheat (TRZAS); TRZAS, compound 0, CQC-m 35 g/ha) | % visual injury, Ob (spring wheat (TRZAS); TRZAS, compound 0, CQC-m 70 g/ha) | % visual injury, Ob (spring wheat (TRZAS); TRZAS, compound 0 g/ha, CQC-m 4.375 g/ha) | % visual injury, Ob (spring wheat (TRZAS); TRZAS, compound 0 g/ha, CQC-m 8.75 g/ha) | % visual injury, Ob (spring wheat (TRZAS); TRZAS, compound 0 g/ha, CQC-m 17.5 g/ha) | % visual injury, Ob (spring wheat (TRZAS); TRZAS, compound 0 g/ha, CQC-m 35 g/ha) | % visual injury, Ob (spring wheat (TRZAS); TRZAS, compound 0 g/ha, CQC-m 70 g/ha) | % visual injury, observed (Ob) (spring wheat (TRZAS); TRZAS, compound 8 0 + CQC-m 4.375 g/ha) | % visual injury, observed (Ob) (spring wheat (TRZAS); TRZAS, compound 8 0 + CQC-m 8.75 g/ha) | % visual injury, observed (Ob) (spring wheat (TRZAS); TRZAS, compound 8 0 + CQC-m 17.5 g/ha) | % visual injury, observed (Ob) (spring wheat (TRZAS); TRZAS, compound 8 0 + CQC-m 35 g/ha) | % visual injury, observed (Ob) (spring wheat (TRZAS); TRZAS, compound 8 0 + CQC-m 70 g/ha) | % visual injury, Ob (spring wheat (TRZAS); alone, 4.375 g/ha) | % visual injury, Ob (spring wheat (TRZAS); alone, 8.75 g/ha) | % visual injury, Ob (spring wheat (TRZAS); alone, 17.5 g/ha) | % visual injury, Ob (spring wheat (TRZAS); alone, 20 g/ha) | % visual injury, Ob (spring wheat (TRZAS); alone, 35 g/ha) | % visual injury, Ob (spring wheat (TRZAS); alone, 40 g/ha) | % visual injury, Ob (spring wheat (TRZAS); alone, 70 g/ha) | % visual injury, Ob (spring wheat (TRZAS); alone, 80 g/ha)

From US9763445B2, “Safened herbicidal compositions comprising a pyridine carboxylic acid herbicide” (Dow AgroSciences, LLC, priority 2014, dated 2017)
